From US20060014738A1, “Fungicidal combination of active substances” (priority 2002, published 2006)

System: Pyrenophora teres
Assay: Pyrenophora teres test (barley)/curative
Format: in vivo
Conditions: curative, application rate of active compound 100 g/ha, evaluation 7 days after inoculation, 0% = control, 100% = no infection
Procedure: Pyrenophora teres Test (Barley)/Curative [table] To produce a suitable preparation of active compound, 1 part by weight of active compound or active compound combination is mixed with the stated amount of solvent and emulsifier, and the concentrate is diluted with water to the desired concentration. To test for curative activity, young plants are sprayed with a conidia suspension of Pyrenophora teres. The plants remain in an incubation cabin at 20° C. and 100% relative atmospheric humidity for 48 hours. The plants are then sprayed with the preparation of active compound at the stated application rate. The plants are placed in a greenhouse at a temperature of about 20° C. and a relative atmospheric humidity of about 80%. Evaluation is carried out 7 days after the inoculation. 0% means an efficacy which corresponds to that of the control, whereas an efficacy of 100% means that no infection is observed.

SMILES | Efficacy in % [%]
CON=C(C(=O)OC)c1ccccc1CO/N=C(\C)c1cccc(C(F)(F)F)c1 [(I), 2-[α-{[(α-methyl-3-trifluoromethylbenzyl)imino]oxy}-o-tolyl]glyoxylic acid methyl ester O-methyl oxime] | 56
OC(Cc1ccccc1Cl)(Cn1nc[nH]c1=S)C1(Cl)CC1 (stereo not drawn) [(II), 2-[2-(1-chlorocyclopropyl)-3-(2-chlorophenyl)-2-hydroxypropyl]-2,4 dihydro[1,2,4]triazole-3-thione] | 56
CON=C(C1=NOCCO1)c1ccccc1Oc1ncnc(Oc2ccccc2Cl)c1F [(III), 3-[1-[2-(4-<2-chlorophenoxy>-5-fluoropyrimid-6-yloxy)phenyl]-1-(methox-imino)methyl]-5,6-dihydro-1,4,2-dioxazine] | 67
